Results from patent publication US6391571B1, “Recombinant inactive avidin mutants” (Roche Diagnostics GmbH, priority 1997, dated 2002).

Key:
[1] = native polypeptide, non-covalent complex with biotin; cited from earlier work
[2] = test system: monobiotinylated Fab' antibody fragment; assay: Affinity of streptavidin muteins to biotin derivatives, BIAcore system; assay type: binding; conditions: CM5 biosensor, 25° C.
Experimental: The affinity of the streptavidin muteins to biotin derivatives (constants Kon, Koff and KA) was determined in comparison to core streptavidin (wild type streptavidin) using the BIAcore system from the Pharmacia Co. For this the respective streptavidin samples were immobilized on the surface of biosensor chips (CM5 biosensor). The surface loading was selected in such a way that a measurement signal of 500 to 2000 resonance units (rU) was generated. The association kinetics were recorded for 3 min in each case at 25° C. and with 6 concentrations (12.5, 25, 50, 100, 200 and 400 nmol/l ) of a monobiotinylated Fab' antibody fragment. In order to investigate the influence of the reverse binding of the antibody, the dissociation kinetics in the absence and presence of 10 μg/ml core streptavidin were compared. The specificity of the binding was shown by an experiment with the same body in a non-biotinylated form (negative control).
The binding constants were determined for the purified streptavidin muteins as well as for streptavidin muteins cross-linked with a polymer (streptavidin-mutein […] serum albumin conjugates, preparation: EP-A-0 092).

avidin: native avidin, amino acid sequence SEQ ID NO.4
binding affinity to biotin (KA) [1]: about 10^15 l/mol

streptavidin: native streptavidin, protein sequence SEQ ID NO.2
binding affinity to biotin (KA) [1]: about 10^15 l/mol

wild-type: recombinant core streptavidin (shortened streptavidin), SEQ ID NO.16, produced per WO 93/09144
KA ([2]; monobiotinylated Fab'): >10^10 1/mol | Koff ([2]; monobiotinylated Fab'): <10^−5 1/s | t/2 diss ([2]; monobiotinylated Fab', cell prints h): >20 h | Kon ([2]; streptavidin sample immobilized, 12.5-400 nmol/l monobiotinylated Fab'): 2.2.10^5 1/mol.s
